Assay results: patent US20230116703A1, “NOVEL ERGOLINES AND METHODS OF TREATING MOOD DISORDERS” (priority 2021, published 2023)
Like-named read-outs stand apart in the source and are kept apart here.

Tests used:
[1] = Metabolic stability in human liver microsomes (HLM); format: in vitro ADME; conditions: for t1/2: 1 μM, 0.50 mg protein per mL
Description: HLM Stability. Pooled HLM from adult male and female donors (Corning 452117) were used.

5-HT2B receptor = target: T1, 5-HT2B receptor (Homo sapiens, UniProt P41595); experiment: cell-based; conditions: Ca^2+ flux, agonist; read-out: 5-HT2B EC50
T1 construct: host or cells: HEK293

5-HT1A receptor = target: T2, 5-HT1A receptor (Homo sapiens, UniProt P08908); experiment: cell-based
T2 construct: host or cells: CHO cells
T2 sequence (P08908 1-422): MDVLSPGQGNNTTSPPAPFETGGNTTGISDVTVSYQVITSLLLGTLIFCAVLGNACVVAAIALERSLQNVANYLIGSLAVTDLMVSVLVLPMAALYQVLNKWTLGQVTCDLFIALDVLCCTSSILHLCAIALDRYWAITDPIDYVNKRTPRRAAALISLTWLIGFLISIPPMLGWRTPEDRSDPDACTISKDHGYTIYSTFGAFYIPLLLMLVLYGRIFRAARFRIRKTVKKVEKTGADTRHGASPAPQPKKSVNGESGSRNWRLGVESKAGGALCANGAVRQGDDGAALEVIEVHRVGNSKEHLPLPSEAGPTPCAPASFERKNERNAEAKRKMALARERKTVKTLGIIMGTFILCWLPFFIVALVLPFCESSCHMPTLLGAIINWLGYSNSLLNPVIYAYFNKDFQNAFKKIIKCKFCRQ

[2] = Metabolic stability in rat liver microsomes (RLM); conditions: for t1/2: RLM, 0.50 mg protein per mL
[3] = Metabolic stability in mouse liver microsomes (MLM); format: in vitro ADME; conditions: 0.50 mg protein per mL; for t1/2: MLM (CD-1), 1 μM
Description: MLM Stability Pooled MLM from CD-1 mice (BIOIVT M00501) were used.

5-HT2A receptor [4] = target: T3, 5-HT2A receptor (Homo sapiens, UniProt P28223); experiment: PathHunter beta-arrestin recruitment assay at 5-HT2A; format: cell-based; conditions: for agonist type in arrestin recruitment assay (in words) / Emax: 5-HT2A beta-arrestin
T3 construct: host or cells: HEK293
Procedure: The degree of arrestin bias varied substantially across the other compounds tested as well.
Arrestin Functional Assay at 5-HT2A. Recruitment of beta-arrestin was determined using a PathHunter assay at Eurofins DiscoverX (Fremont, Calif.) according to their standard protocols. PathHunter GPCR beta-arrestin assays take advantage of DiscoverX's proprietary Enzyme Fragment Complementation technology. The GPCR is fused in frame with a small enzyme donor fragment ProLink™ (PK) and co-expressed in cells stably expressing a fusion protein of beta-arrestin and the larger, N-terminal deletion mutant of beta-galactosidase. Activation of the GPCR (5-HT2A receptor in this case) stimulates binding of beta-arrestin to the PK-tagged GPCR and forces complementation of the two enzyme fragments, resulting in the formation of an active beta-galactosidase enzyme. This interaction leads to an increase in enzyme activity that can be measured using chemiluminescent PathHunter Detection Reagents. Briefly, PathHunter cells expressing 5-HT2A receptors were seeded in a volume of 20 μL into 384-well plates and incubated at 37° C. for the appropriate time prior to testing. […] Plates were then imaged on a microplate reader and the agonist activity was calculated using the following formula: % Activity=100%×(mean RLU of test sample−mean RLU of vehicle control)/(mean MAX control ligand−mean RLU of vehicle control), where RLU=relative light units.

5-HT2A receptor [5] = target: T3, 5-HT2A receptor; experiment: cell-based; format: cell-based; conditions: Ca^2+ flux, agonist; read-out: 5-HT2A EC50
5-HT2A receptor [6] = target: T3, 5-HT2A receptor; experiment: biochemical; format: binding; conditions: 1 nM [^3H]ketanserin, HEK293 stable cell line; read-out: 5-HT2A Receptor Ki (nM) ([^3H]ketanserin)
How it was run: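 Affinity was measured in radioligand binding experiments using [^3H]ketanserin as the labelled ligand, following methods adapted from published procedures.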

C57BL/6 mice = experiment: Head twitch response (HTR) in mice; format: in vivo, mouse; conditions: SC; for ED50: 20 min, read-out: ED50 (95% CI); for ED50 / Most Efficacious Dose / Emax (95% CI): mouse HTR; for ED50 / Emax (95% CI): 20 min observation, curve fit, poor in some cases
Procedure: Agonists of the 5-HT2A receptor are well known to induce this effect in rodents and the potency of this HTR is correlated with hallucinogenic potency in humans.
Animals. Adult male C57BL/6 mice, aged 6-8 weeks (body weight 20-25 g) were used in this experiment. Animals were housed under controlled temperatures and 12-hour light/dark cycles (lights on between 07:00-19:00 h), with ad libitum food and water. This study was carried out in strict accordance with the requirements of the Committee for the Purpose of Control and Supervision of Experiments on Animals (CPCSEA), India. All efforts were made to minimize suffering.
Drugs and Drug Administration. Compound 1 was synthesized as described above. It was administered subcutaneously (SC) dissolved in saline vehicle at a volume of 10 mL/kg. Five doses were tested, with n=6 animals/group. Doses were calculated on the basis of the freebase.
Procedure. Mice were administered one dose of the drug and immediately placed into a small open field for behavioral observation. Animals were observed continuously for 20 mins and the number of head twitches (HTs) were counted by an observer blind to the treatment condition.
Statistical Analysis. The data points shown are the mean±standard error of the mean (SEM). Analysis was performed using GraphPad Prism 6. Curves were fit using a non-linear gaussian distribution to calculate ED50 and Emax values.
Additional disclosed compounds were tested in the mouse head twitch response (HTR) assay according to the procedure described in Example 43. […] Lastly, compounds with much larger benzyl and phenethyl substituents on the amine nitrogen (e.g., 10 and 11) were low efficacy in this assay, consistent with their lower maximal efficacy in the arrestin functional assay (see Example 41).

human 5-HT2C receptor = target: T4, human 5-HT2C receptor (Homo sapiens, UniProt P28335); experiment: cell-based; conditions: Ca^2+ flux, agonist
T4 sequence (P28335 33-458): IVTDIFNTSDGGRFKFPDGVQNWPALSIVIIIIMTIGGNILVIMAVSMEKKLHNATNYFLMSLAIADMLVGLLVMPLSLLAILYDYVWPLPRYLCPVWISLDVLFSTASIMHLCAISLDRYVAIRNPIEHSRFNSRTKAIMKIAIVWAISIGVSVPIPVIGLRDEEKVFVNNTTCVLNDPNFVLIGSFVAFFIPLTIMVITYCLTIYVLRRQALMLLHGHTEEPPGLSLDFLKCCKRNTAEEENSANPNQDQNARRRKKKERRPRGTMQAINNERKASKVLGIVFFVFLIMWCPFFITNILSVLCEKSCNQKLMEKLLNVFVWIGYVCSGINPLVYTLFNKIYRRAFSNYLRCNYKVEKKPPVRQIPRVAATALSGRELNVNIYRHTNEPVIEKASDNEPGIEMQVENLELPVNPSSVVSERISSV

[7] = both sexes, human, pooled human liver microsomes, pH 7.4, 0.50 mg protein per mL
[8] = Ca^2+ flux, agonist, read-out: 5-HT1A EC50
[9] = both, rat, pooled rat liver microsomes, pH 7.4
[10] = mouse, pooled mouse liver microsomes, pH 7.4, MLM (CD-1)

T3 sequence (P28223 whole entry): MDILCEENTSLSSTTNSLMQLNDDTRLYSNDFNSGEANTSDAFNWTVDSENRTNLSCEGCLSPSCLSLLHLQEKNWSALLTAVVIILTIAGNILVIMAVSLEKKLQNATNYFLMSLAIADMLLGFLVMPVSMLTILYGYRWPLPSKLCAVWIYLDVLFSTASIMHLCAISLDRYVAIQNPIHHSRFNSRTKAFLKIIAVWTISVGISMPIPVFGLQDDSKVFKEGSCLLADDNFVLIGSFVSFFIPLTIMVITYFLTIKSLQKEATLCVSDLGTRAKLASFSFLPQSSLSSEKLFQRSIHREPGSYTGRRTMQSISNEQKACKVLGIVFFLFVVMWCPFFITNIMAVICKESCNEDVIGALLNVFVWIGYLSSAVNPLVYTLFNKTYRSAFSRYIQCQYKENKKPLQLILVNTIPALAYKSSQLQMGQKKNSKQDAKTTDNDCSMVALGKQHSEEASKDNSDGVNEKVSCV
T1 sequence (P41595 whole entry): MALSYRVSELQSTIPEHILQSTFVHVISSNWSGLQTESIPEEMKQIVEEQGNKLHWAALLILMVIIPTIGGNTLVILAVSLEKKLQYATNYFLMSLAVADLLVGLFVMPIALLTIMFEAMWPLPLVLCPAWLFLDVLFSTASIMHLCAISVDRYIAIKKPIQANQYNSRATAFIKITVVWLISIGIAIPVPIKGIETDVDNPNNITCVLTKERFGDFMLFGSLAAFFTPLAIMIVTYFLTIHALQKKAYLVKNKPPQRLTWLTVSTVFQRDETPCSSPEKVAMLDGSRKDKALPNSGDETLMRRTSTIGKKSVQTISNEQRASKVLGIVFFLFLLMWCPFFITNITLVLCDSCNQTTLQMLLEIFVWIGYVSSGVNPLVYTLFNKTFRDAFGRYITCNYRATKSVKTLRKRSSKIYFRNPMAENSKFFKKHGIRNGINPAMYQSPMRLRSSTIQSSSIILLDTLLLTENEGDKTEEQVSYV

Row | SMILES | t1/2 [1] | microsomal CLint at 1 μM [1, 7] | EC50 (5-HT2B receptor) | EC50 (5-HT1A receptor; [8]) | t1/2 [2] | microsomal CLint at 1 μM [2, 9] | t1/2 [3] | microsomal CLint at 1 μM [3, 10] | EC50 (5-HT2A receptor [4]) | agonist type in arrestin recruitment assay (in words) (5-HT2A receptor [4]) | EC50 (5-HT2A receptor [5]) | Ki (5-HT2A receptor [6]) | ED50 (C57BL/6 mice) | Most Efficacious Dose (C57BL/6 mice) | Emax (95% CI) (C57BL/6 mice) | EC50 (human 5-HT2C receptor) | Emax (5-HT2A receptor [4]) | other results
1 | C=CCN1C[C@H](C(=O)N[C@H](C)CC)C=C2c3cccc4[nH]cc(c34)C[C@H]21 [Compound 8, (6aR,9R)-7-allyl-N—((R)-sec-butyl)-4,6,6a,7,8,9-hexahydroindolo[4,3-fg]quinoline-9-carboxamide] | 7.9 min | 174 µL/min/mg | 22.2 nM | 2.53 nM | 7.7 min | 180 µL/min/mg | 3.7 min | 377 µL/min/mg | 1.71 nM | full agonists | 0.678 nM | 2.38 nM | 0.0282 mg/kg | 1 mg/kg | 12.03 (9.571-14.68) | 4.05 nM |  | 
2 | CCC[C@@H](C)NC(=O)[C@@H]1C=C2c3cccc4[nH]cc(c34)C[C@H]2N(C)C1 [Int17, (6aR,9R)-7-methyl-N—((R)-pentan-2-yl)-4,6,6a,7,8,9-hexahydroindolo[4,3-fg]quinoline-9-carboxamide] | 15.865 min | 87.4 µL/min/mg | 70.8 nM | 7.01 nM | 27.894 min | 49.7 µL/min/mg | 8.252 min | 168 µL/min/mg | 1.19 nM | partial agonists | 9.67 nM | 0.41 nM | 0.00405 mg/kg | 0.32 mg/kg | 4.96 (3.764-6.286) | 2.53 nM | < 60% | # HTR at Most Efficacious Dose (C57BL/6 mice; mouse, head twitches in 20 min): 6.0
3 | CCC(CC)NC(=O)[C@@H]1C=C2c3cccc4[nH]cc(c34)C[C@H]2N(C)C1 [Int14, (6aR,9R)-7-methyl-N-(pentan-3-yl)-4,6,6a,7,8,9-hexahydroindolo[4,3-fg]quinoline-9-carboxamide] | 17.593 min | 78.8 µL/min/mg | > 10000 nM |  | 37.988 min | 36.5 µL/min/mg | 6.07 min | 228 µL/min/mg | 1.48 nM | partial agonists | 15.9 nM | 0.47 nM | 1.47 mg/kg | 1 mg/kg | 21.63 (10.59-???) | 3.63 nM | < 60% | EC50 (5-HT1A receptor): 46 nM
4 | CC[C@@H](C)NC(=O)[C@@H]1C=C2c3cccc4[nH]cc(c34)C[C@H]2N(C)C1 [Int8, (6aR,9R)—N—((R)-sec-butyl)-7-methyl-4,6,6a,7,8,9-hexahydroindolo[4,3-fg]quinoline-9-carboxamide] | 64.9 min | 21.3 µL/min/mg | 71.9 nM | 9.69 nM | 99.5 min | 13.9 µL/min/mg | 39.9 min | 34.7 µL/min/mg | 4.05 nM | partial agonists | 10.3 nM | 1.07 nM | 0.106 mg/kg | 1 mg/kg | 14.34 (10.41-31.47) | 7.32 nM | < 60% | 
5 | CC[C@@H](C)NC(=O)[C@@H]1C=C2c3cccc4[nH]cc(c34)C[C@H]2N(CC)C1 [Compound 5, (6aR,9R)—N—((R)-sec-butyl)-7-ethyl-4,6,6a,7,8,9-hexahydroindolo[4,3-fg]quinoline-9-carboxamide] |  | 62.3 µL/min/mg | 35.4 nM | 0.96 nM |  | 72 µL/min/mg |  | 170 µL/min/mg | 1.92 nM | full agonists | 0.718 nM | 2.18 nM | 0.0306 mg/kg | 0.32 mg/kg | 15.22 (11.77-19.03) | 1.29 nM |  | half-life at 1 μM [1, 7]: 22.2 min; half-life at 1 μM [2, 9]: 19.3 min; half-life at 1 μM [3, 10]: 8.1 min
6 | CCC[C@@H](C)NC(=O)[C@@H]1C=C2c3cccc4[nH]cc(c34)C[C@H]2N(CCC)C1 [Compound 7, (6aR,9R)—N—((R)-pentan-2-yl)-7-propyl-4,6,6a,7,8,9-hexahydroindolo[4,3-fg]quinoline-9-carboxamide] | 1.65 min | 840 µL/min/mg | 364 nM | 12.8 nM | 1.612 min | 860 µL/min/mg | 0.541 min | 2560 µL/min/mg | 1.6 nM | full agonists | 13.2 nM | 0.85 nM | 58.9 mg/kg | 1 mg/kg | 720.4 (???-???) | 1.99 nM |  | 
